Consider 32 compounds from ChEMBL document CHEMBL3272349, “Quantitative structure-activity relationships of antimalarial and dihydrofolate reductase inhibition by quinazolines and 5-substituted benzyl-2,4-diaminopyrimidines” (J Med Chem, 1977).

The subject of assay [1] is Plasmodium berghei. Nature of the assay: Antimalarial activity against Plasmodium berghei infected in po dosed mouse assessed as suppression of parasitemia administered for 6 days. The class given is functional.
The target in assay [2] is T1, Dihydrofolate reductase (Rattus norvegicus) (UniProt Q920D2).
T1 sequence (whole entry): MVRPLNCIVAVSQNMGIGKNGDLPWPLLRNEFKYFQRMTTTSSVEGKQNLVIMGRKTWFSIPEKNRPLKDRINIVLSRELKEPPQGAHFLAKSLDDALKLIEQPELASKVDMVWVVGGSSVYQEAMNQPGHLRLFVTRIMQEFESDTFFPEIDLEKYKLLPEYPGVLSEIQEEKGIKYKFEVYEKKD
Description: Inhibition of rat liver dihydrofolate reductase

Assay [3] deals with T2, Dihydrofolate reductase (Escherichia coli) (UniProt P0ABQ4).
T2 sequence (whole entry): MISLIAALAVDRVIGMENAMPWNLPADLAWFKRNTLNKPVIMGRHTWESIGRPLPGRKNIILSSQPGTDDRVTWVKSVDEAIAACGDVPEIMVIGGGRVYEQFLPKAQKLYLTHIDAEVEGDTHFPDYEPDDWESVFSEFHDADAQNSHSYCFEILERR
Description: Inhibition of Escherichia coli dihydrofolate reductase

For assay [4], the system named is Plasmodium berghei. Nature of the assay: Antimalarial activity against Plasmodium berghei infected in po dosed mouse assessed as suppression of parasitemia administered for 4 days. It is filed as functional.
The subject of assay [5] is Proteus vulgaris. Kind of assay: Inhibition of Proteus vulgaris dihydrofolate reductase.
For assay [6], the system named is Plasmodium berghei. Kind of assay: Antimalarial activity against Plasmodium berghei infected in po dosed mouse assessed as suppression of parasitemia. It is filed as functional.

As for `Nc1nc(N)c2cc(Oc3cc(Cl)cc(Cl)c3)ccc2n1`, the “log(1/SD90)” value in assay [1] is 4.11.

The compound `Nc1ncc(Cc2ccccc2)c(N)n1` showed a log(1/I50) in assay [2] of 4.8.

In assay [3], `COc1cccc(Cc2cnc(N)nc2N)c1` yielded a log(1/I50) of 6.31.

Turning to `Nc1ncc(Cc2ccc(Cl)cc2)c(N)n1`, in assay [3], the log(1/I50) was determined as 5.68.

Turning to `Nc1nc(N)c2cc(N(Cc3ccc(Cl)c(Cl)c3)N=O)ccc2n1`, the “log(1/SD90)” value in assay [4] was determined as 6.13.

Turning to `Nc1nc(N)c2cc(N3CCC(c4ccccc4)CC3)ccc2n1`, the “log(1/SD90)” value in assay [4] stood at 4.3.

On to `Cc1ccc(C)n1-c1cc(-n2c(C)ccc2C)c2nc(N)nc(N)c2c1`, for which the “log(1/SD90)” value in assay [4] is listed as 4.34.

`Nc1ncc(Cc2ccc(O)cc2)c(N)n1` had a log(1/I50) in assay [3] of 5.74.

`Nc1nc(N)c2cc(Oc3cc(Cl)c(Cl)cc3Cl)ccc2n1`: the “log(1/SD90)” value in assay [1] was found to be 4.57.

With `Nc1nc(N)c2cc(N3CCc4ccccc4C3)ccc2n1`, in assay [4], the “log(1/SD90)” value is 4.8.

`Nc1nc(N)c2cc(Oc3ccc4cc(Br)ccc4c3)ccc2n1`: in assay [1], the “log(1/SD90)” value is given as 4.09.

As for `CCCCc1ccc(N2C(N)=NC(N)=NC2(C)C)cc1`, in assay [5], the Activity worked out at 10000 ×10⁻⁸ M.

As to `Nc1nc(N)c2cc(OCc3ccccc3)ccc2n1`, the “log(1/SD90)” value in assay [1] was found to be 3.18.

As for `Nc1nc(N)c2cc(CNc3ccc(Cl)c(Cl)c3)ccc2n1`, the “log(1/SD90)” value in assay [6] is 5.56.

As to `Nc1nc(N)c2cc(Oc3ccc4cc(Br)ccc4c3Br)ccc2n1`, the “log(1/SD90)” value in assay [1] is recorded as 4.05.

`COc1ccc(Cc2cnc(N)nc2N)cc1`: the log(1/I50) in assay [3] came to 5.96.

With `Nc1nc(N)c2cc(OCc3ccc(Cl)cc3)ccc2n1`, the “log(1/SD90)” value in assay [1] is 4.06.

On to `COc1ccc(Cc2cnc(N)nc2N)cc1OC`, for which the log(1/I50) in assay [3] was 7.

For `Nc1nc(N)c2cc(Oc3ccc(Cl)c(Cl)c3)ccc2n1`, the “log(1/SD90)” value in assay [1] is reported as 4.52.

For `Nc1nc(N)c2cc(Oc3ccccc3)ccc2n1`, the “log(1/SD90)” value in assay [1] is given as 4.43.

As for `Nc1nc(N)c2c(n1)CCN(Cc1ccccc1)C2`, the “log(1/SD90)” value in assay [6] was 3.65.

For the compound `Nc1nc(N)c2cc(N3CCCC3c3ccccc3)ccc2n1` (configuration not stated), the “log(1/SD90)” value in assay [4] turned out to be 5.94.

Regarding `Cc1ccc(Cc2cnc(N)nc2N)cc1`, the log(1/I50) in assay [3] was 5.64.

As to `Nc1nc(N)c2cc(Oc3ccc(Cl)c4ccccc34)ccc2n1`, the “log(1/SD90)” value in assay [1] worked out at 3.57.

As to `Nc1nc(N)c2c(n1)CCN(Cc1c(Cl)cccc1Cl)C2`, the “log(1/SD90)” value in assay [6] was 4.36.

On to `Cc1c(N(C=O)Cc2ccc(Cl)c(Cl)c2)ccc2nc(N)nc(N)c12`, for which, in assay [6], the “log(1/SD90)” value worked out at 5.69.

Turning to `Nc1nc(N)c2c(n1)CCN(Cc1ccc(Cl)cc1Cl)C2`, the “log(1/SD90)” value in assay [6] was found to be 4.4.

For the compound `COc1cc(Cc2cnc(N)nc2N)cc(OC)c1OC`, the Activity in assay [5] is 0.5 ×10⁻⁸ M.

In the case of `Cc1c(CNc2ccc(Cl)cc2)ccc2nc(N)nc(N)c12`, the “log(1/SD90)” value in assay [6] was found to be 6.55.

With `Nc1nc(N)c2cc(NCc3ccc(Cl)c(Cl)c3)ccc2n1`, the “log(1/SD90)” value in assay [1] was 4.59.

In assay [3], `COc1cc(Cc2cnc(N)nc2N)cc(Cl)c1OC` returned a log(1/I50) of 7.4.

For the compound `Nc1nc(N)c2cc(Oc3cc(C(F)(F)F)cc(C(F)(F)F)c3)ccc2n1`, in assay [1], the “log(1/SD90)” value came out at 4.44.
